Assay results taken from patent US12637424B2, “Pharmaceutical salt of an arylpyrrole derivative” (SENTINEL ONCOLOGY LIMITED, priority 2020, dated 2026).

Experiments:
Experiment in all cases: DiscoverX KinomeScreen competition binding assay (kinase selectivity panel)
[1] = molecular target: T1, panel of ninety-seven kinases (Homo sapiens, UniProt P36897); details: TGFBR1; screened at 3000 nM
T1 construct: purchased DiscoverX; host or cells: E. coli (BL21-derived, T7 phage display) or HEK-293
Experimental: (§1) This has been investigated by testing atropisomer A-2 for off-target activity against a panel of ninety-seven kinases distributed across the kinome at a concentration of 3 μM using the DiscoverX KinomeScreen assay. The DiscoverX KinomeScreen assay is a site-directed competition binding assay which measures the binding affinity of a compound to a kinase, by use of a solid supported control compound which can bind or capture the kinases in solution. In the absence of a kinase-inhibitor test compound, all of the kinase will bind to the solid support. If a kinase-inhibitor test compound is added to the assay mix, the amount of kinase binding to the solid support will be reduced, the extent of reduction being dependent on the potency of the test compound as a kinase inhibitor. […] For most assays, kinase-tagged T7 phage strains were grown in parallel in 24-well blocks in an E. coli host derived from the BL21 strain. E. coli were grown to log-phase and infected with T7 phage from a frozen stock (multiplicity of infection=0.4) and incubated with shaking at 32° C. until lysis (90-150 minutes). The lysates were centrifuged (6,000×g) and filtered (0.2 μm) to remove cell debris. The remaining kinases were produced in HEK-293 cells and subsequently tagged with DNA for qPCR detection. Streptavidin-coated magnetic beads were treated with biotinylated small molecule ligands for 30 minutes at room temperature to generate affinity resins for kinase assays. The liganded beads were blocked with excess biotin and washed with blocking buffer (SeaBlock (Pierce), 1% BSA, 0.05% Tween 20, 1 mM DTT) to remove unbound ligand and to reduce non-specific phage binding. […] Test compounds were prepared as 40× stocks in 100% DMSO and directly diluted into the assay. All reactions were performed in polypropylene 384-well plates in a final volume of 0.02 ml. […] The beads were then re-suspended in elution buffer (1×PBS, 0.05% Tween 20, 0.5 μM non-biotinylated affinity ligand) and incubated at room temperature with shaking for 30 minutes. The kinase concentration in the eluates was measured by qPCR. Compounds that bind the kinase active site and directly (sterically) or indirectly (allosterically) prevent kinase binding to the immobilized ligand, will reduce the amount of kinase captured on the solid support. […] The strength of binding of the test molecule to the kinase can be expressed as the percent control (% Ctrl) The compound(s) were screened at 3000 nM concentration, and results for primary screen binding interactions are reported as ‘% Ctrl’, where lower numbers indicate stronger hits in the matrix on the following page(s). [formula] • negative control=DMSO (100% Ctrl) • positive control=control compound (0% Ctrl)

[2] = molecular target: T2, panel of ninety-seven kinases (Homo sapiens, UniProt O14757); details: CHEK1; screened at 3000 nM
T2 construct: purchased DiscoverX; host or cells: E. coli (BL21-derived, T7 phage display) or HEK-293
Experimental: as §1

[3] = molecular target: T3, panel of ninety-seven kinases (Homo sapiens, UniProt P16234); details: PDGFRA; screened at 3000 nM
T3 construct: purchased DiscoverX; host or cells: E. coli (BL21-derived, T7 phage display) or HEK-293
Experimental: as §1

[4] = molecular target: T4, panel of ninety-seven kinases (Homo sapiens, UniProt O15111); details: CHUK; screened at 3000 nM
T4 construct: purchased DiscoverX; host or cells: E. coli (BL21-derived, T7 phage display) or HEK-293
Experimental: as §1

[5] = system: panel of ninety-seven kinases; details: for % Ctrl @ 3 μM: screened at 3000 nM
Experimental: as §1

[6] = molecular target: T5, panel of ninety-seven kinases (Homo sapiens, UniProt P49841); details: GSK3B; screened at 3000 nM
T5 construct: purchased DiscoverX; host or cells: E. coli (BL21-derived, T7 phage display) or HEK-293
Experimental: as §1

[7] = molecular target: T6, panel of ninety-seven kinases (Homo sapiens, UniProt P50750); details: CDK9; screened at 3000 nM
T6 construct: purchased DiscoverX; host or cells: E. coli (BL21-derived, T7 phage display) or HEK-293
Experimental: as §1

[8] = molecular target: T7, panel of ninety-seven kinases (Homo sapiens, UniProt Q9BUB5); details: MKNK1; screened at 3000 nM
T7 construct: purchased DiscoverX; host or cells: E. coli (BL21-derived, T7 phage display) or HEK-293
Experimental: as §1

[9] = molecular target: T8, panel of ninety-seven kinases (Homo sapiens, UniProt Q9Y463); details: DYRK1B; screened at 3000 nM
T8 construct: purchased DiscoverX; host or cells: E. coli (BL21-derived, T7 phage display) or HEK-293
Experimental: as §1

[10] = molecular target: T9, panel of ninety-seven kinases (Homo sapiens, UniProt O15075); details: DCLK1; screened at 3000 nM
T9 construct: purchased DiscoverX; host or cells: E. coli (BL21-derived, T7 phage display) or HEK-293
Experimental: as §1

[11] = molecular target: T10, panel of ninety-seven kinases (Homo sapiens, UniProt P50613); details: CDK7; screened at 3000 nM
T10 construct: purchased DiscoverX; host or cells: E. coli (BL21-derived, T7 phage display) or HEK-293
Experimental: as §1

[12] = molecular target: T11, panel of ninety-seven kinases (Homo sapiens, UniProt P11309); details: PIM1; screened at 3000 nM
T11 construct: purchased DiscoverX; host or cells: E. coli (BL21-derived, T7 phage display) or HEK-293
Experimental: as §1

[13] = molecular target: T12, panel of ninety-seven kinases (Homo sapiens, UniProt P48736); details: PIK3CG; screened at 3000 nM
T12 construct: purchased DiscoverX; host or cells: E. coli (BL21-derived, T7 phage display) or HEK-293
Experimental: as §1

[14] = molecular target: T13, panel of ninety-seven kinases (Homo sapiens, UniProt Q9Y6R4); details: MAP3K4; screened at 3000 nM
T13 construct: purchased DiscoverX; host or cells: E. coli (BL21-derived, T7 phage display) or HEK-293
Experimental: as §1

[15] = molecular target: T14, panel of ninety-seven kinases (Homo sapiens, UniProt P24941); details: CDK2; screened at 3000 nM
T14 construct: purchased DiscoverX; host or cells: E. coli (BL21-derived, T7 phage display) or HEK-293
Experimental: as §1

[16] = molecular target: T15, panel of ninety-seven kinases (Homo sapiens, UniProt P48730); details: CSNK1D; screened at 3000 nM
T15 construct: purchased DiscoverX; host or cells: E. coli (BL21-derived, T7 phage display) or HEK-293
Experimental: as §1

[17] = molecular target: T16, panel of ninety-seven kinases (Homo sapiens, UniProt P36896); details: ACVR1B; screened at 3000 nM
T16 construct: purchased DiscoverX; host or cells: E. coli (BL21-derived, T7 phage display) or HEK-293
Experimental: as §1

[18] = molecular target: T17, panel of ninety-seven kinases (Homo sapiens, UniProt Q02763); details: TEK; screened at 3000 nM
T17 construct: purchased DiscoverX; host or cells: E. coli (BL21-derived, T7 phage display) or HEK-293
Experimental: as §1

[19] = molecular target: T18, panel of ninety-seven kinases (Homo sapiens, UniProt Q16539); details: MAPK14; screened at 3000 nM
T18 construct: purchased DiscoverX; host or cells: E. coli (BL21-derived, T7 phage display) or HEK-293
Experimental: as §1

[20] = molecular target: T19, panel of ninety-seven kinases (Homo sapiens, UniProt Q15759); details: MAPK11; screened at 3000 nM
T19 construct: purchased DiscoverX; host or cells: E. coli (BL21-derived, T7 phage display) or HEK-293
Experimental: as §1

[21] = molecular target: T20, panel of ninety-seven kinases (Homo sapiens, UniProt Q9P1W9); details: PIM2; screened at 3000 nM
T20 construct: purchased DiscoverX; host or cells: E. coli (BL21-derived, T7 phage display) or HEK-293
Experimental: as §1

[22] = molecular target: T21, panel of ninety-seven kinases (Homo sapiens, UniProt P80192); details: MAP3K9; screened at 3000 nM
T21 construct: purchased DiscoverX; host or cells: E. coli (BL21-derived, T7 phage display) or HEK-293
Experimental: as §1

## CN(C)CCNC(=O)c1ccc(-c2ccc(-c3ccc(Cl)cc3)n2-c2ccccc2C(F)(F)F)cc1 (single isomer, unassigned) [Atropisomer A-2]
[1]
  % Ctrl @ 3 μM: 95 % Ctrl
[2]
  % Ctrl @ 3 μM: 100 % Ctrl
[3]
  % Ctrl @ 3 μM: 100 % Ctrl
[4]
  % Ctrl @ 3 μM: 100 % Ctrl
[5]; 3 μM (3000 nM), ninety-seven kinases
  binding activity against panel kinases (% Ctrl): poor or non-existent binding activity
[5]; EGFR
  % Ctrl @ 3 μM: 100 % Ctrl
[5]; KIT
  % Ctrl @ 3 μM: 100 % Ctrl
[6]
  % Ctrl @ 3 μM: 88 % Ctrl
[7]
  % Ctrl @ 3 μM: 97 % Ctrl
[8]
  % Ctrl @ 3 μM: 92 % Ctrl
[9]
  % Ctrl @ 3 μM: 97 % Ctrl
[10]
  % Ctrl @ 3 μM: 87 % Ctrl
[11]
  % Ctrl @ 3 μM: 100 % Ctrl
[12]
  % Ctrl @ 3 μM: 99 % Ctrl
[13]
  % Ctrl @ 3 μM: 100 % Ctrl
[14]
  % Ctrl @ 3 μM: 93 % Ctrl
[15]
  % Ctrl @ 3 μM: 94 % Ctrl
[16]
  % Ctrl @ 3 μM: 91 % Ctrl
[17]
  % Ctrl @ 3 μM: 96 % Ctrl
[18]
  % Ctrl @ 3 μM: 99 % Ctrl
[19]
  % Ctrl @ 3 μM: 100 % Ctrl
[20]
  % Ctrl @ 3 μM: 99 % Ctrl
[21]
  % Ctrl @ 3 μM: 100 % Ctrl
[22]
  % Ctrl @ 3 μM: 96 % Ctrl
